The target in one assay is T1, PDE4D2 (Homo sapiens, UniProt Q08499).
T1 construct: purchased BPS bioscience
Nature of the assay: In vitro PDE4D2 enzyme inhibitory activity (AMP-Glo), reported as PDE4D2/PDE4B2 selectivity. It is filed as biochemical. The conditions noted are these: Ratio of IC50 value of PDE4D2 enzyme inhibition/IC50 value of PDE4B2 enzyme inhibition. The protocol: Assay 1: In vitro evaluation of inhibitory activities of the compounds against PDE4B2 and PDE4D2 enzymes 1. Assay materials and instruments:
2. Assay procedure: • 2.1 Compound preparation and treatment • 2.1.1 Preparing stock solutions of compounds in DMSO: Compound powders were dissolved in 100% DMSO to produce 10 mM stock solutions, and oscillated in a shaker until the compounds were completely dissolved. • 2.1.2 Storing stock solutions of compounds in DMSO: Stock solutions of compounds in DMSO were stored in a desiccator at room temperature. • 2.1.3 Preparing working stock solutions: a) A solution of Roflumilast (reference compound) in DMSO was diluted to 60 µM, and then serially diluted 4-fold into 10 concentration gradients. B) The solutions of the test compounds in DMSO were diluted to 200 µM, and then serially diluted 3-fold. C) A 200X positive control (60 µM Roflumilast) and a 200X vehicle control (100% DMSO) were prepared. D) The assay plate was centrifuged at 1000 rpm for 1 minute. • 2.2 Compound testing • (1) 20 nL of compound dilution solutions were transferred with Echo 550 into each well of the assay plate. • (2) The assay plate was sealed and centrifuged at 1000 rpm for 1 minute. • (3) 2X PDE4B2/PDE4D2 was prepared in an ice-cold PDE assay buffer. • (4) 2 µL of 2X PDE4B2/PDE4D2 was added to each well of the assay plate prepared in step 2. • (5) The assay plate was sealed and allowed to equilibrate at room temperature for 10 minutes. • (6) 2X Cyclic-3',5'-AMP was prepared in a PDE assay buffer. • 7) 2µL of 2X Cyclic-3',S'-AMP (prepared in step 6) was added to each well of the assay plate (prepared in step 5) to initiate the reaction. The plate was incubated at room temperature for 60 minutes. • 8) 4µL AMP-Glo Reagent I was added, and the plate was incubated at room temperature for 60 minutes. • 9) 8µL AMP detection reagent was added. The plate was incubated at room temperature for 60 minutes. • 10) The RLU signal was read on an Envision 2105 plate reader.

The subject of assay [1] is LPS-induced TNF-α secretion from human PBMC. Nature of the assay: Inhibition of LPS-induced TNF-α secretion from human PBMC. The conditions noted are these: hPBMC, LPS 10 ng/mL, 24 hours. It is filed as cell-based. How it is done: Assay 3: Test of the inhibition of compounds on LPS-induced TNF-α secretion from human PBMC
Frozen hPBMC cell stock solution was rapidly thawed in a 37°C water bath. The cells were transferred to complete medium (RPMI 1640+10% FBS+1% P/S). The suspension was centrifuged at 1000 rpm for 5 minutes. The supernatant was discarded, and the cells were resuspended in 1 mL complete medium (RPMI 1640 + 10% FBS + 1% P/S). After gentle pipetting to mix, the cells were counted using trypan blue staining. Cells were seeded into a 96-well cell culture plate at 5×10^4 cells/well, with 100 µL/well of complete medium. Test compounds were prepared at 4×the final concentration and added to the cells at 50 µL/well, followed by a 30-minute pre-incubation. Control wells without compound were simultaneously set up. LPS was prepared as a 4×solution to achieve a final stimulation concentration of 10 ng/mL and added to the cells at 50µL/well. Control wells without LPS were simultaneously set up. The incubation of cells was continued and 10% of supernatant was collected for detection after 24 hours. The collected supernatant was detected according to the Human TNF-α kit of R&D Company (VAL105G). The inhibitory activities of the compounds of the present invention on LPS-induced TNF-α secretion from human PBMC were determined according to the above method. […]

Usually IC50 stands for the concentration that inhibits the measured activity by half.

The structures appear in SMILES notation.

T1 sequence (Q08499 303-809 limits assumed): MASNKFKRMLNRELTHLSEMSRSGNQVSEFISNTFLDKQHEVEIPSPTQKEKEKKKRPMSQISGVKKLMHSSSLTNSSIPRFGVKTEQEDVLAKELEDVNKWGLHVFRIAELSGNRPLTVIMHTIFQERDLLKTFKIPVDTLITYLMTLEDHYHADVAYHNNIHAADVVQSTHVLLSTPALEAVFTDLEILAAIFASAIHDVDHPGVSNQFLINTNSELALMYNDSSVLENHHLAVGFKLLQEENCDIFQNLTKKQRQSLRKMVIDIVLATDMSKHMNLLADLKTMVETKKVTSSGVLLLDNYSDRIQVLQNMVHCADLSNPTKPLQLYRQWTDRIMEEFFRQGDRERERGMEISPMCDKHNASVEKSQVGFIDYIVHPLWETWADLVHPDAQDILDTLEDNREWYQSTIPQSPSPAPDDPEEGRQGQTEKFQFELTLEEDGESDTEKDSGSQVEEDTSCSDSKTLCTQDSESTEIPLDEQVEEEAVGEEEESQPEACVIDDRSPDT

As to `[O-][S+]1CCc2nc(N3CC=C(c4ccc(OC(F)F)cc4)C3)nc(NC3(CO)CCC3)c21` (racemic) [Compound 14, (R/S)-2-(3-(4-(difluoromethoxy)phenyl)-2,5-dihydro-1H-pyrrol-1-yl)-4-((1-(hydroxymethyl)cyclobutyl)amino)-6,7-dihydrothieno[3,2-d]pyrimidine 5-oxide], the PDE4D2/PDE4B2 selectivity result on PDE4D2 is “B (2<B≤5)”. `COC1(c2ccc(OC(F)F)cc2)CN(c2nc3c(c(NC4(CO)CCC4)n2)[S+]([O-])CC3)C1` (racemic) [Compound 105, (R/S)-2-(3-(4-(difluoromethoxy)phenyl)-3-methoxyazetidin-1-yl)-4-((1-(hydroxymethyl)cyclobutyl)amino)-6,7-dihydrothieno[3,2-d]pyrimidine 5-oxide]: at PDE4D2, the PDE4D2/PDE4B2 selectivity result was “B (2<B≤5)”. In the case of `COC1(c2ccc(OCC3CC3)cc2)CN(c2nc3c(c(NC4(CO)CCC4)n2)[S+]([O-])CC3)C1` (racemic) [Compound 106, (R/S)-2-(3-(4-(cyclopropylmethoxy)phenyl)-3-methoxyazetidin-1-yl)-4-((1-(hydroxymethyl)cyclobutyl)amino)-6,7-dihydrothieno[3,2-d]pyrimidine 5-oxide], the PDE4D2/PDE4B2 selectivity result at PDE4D2 is listed as “B (2<B≤5)”. Regarding `COc1ccc(C2(OC)CN(c3nc4c(c(NC5CCOCC5)n3)[S+]([O-])CC4)C2)cc1` (racemic) [Compound 108, (R/S)-2-(3-methoxy-3-(4-methoxyphenyl)azetidin-1-yl)-4-((tetrahydro-2H-pyran-4-yl)amino)-6,7-dihydrothieno[3,2-d]pyrimidine 5-oxide], the PDE4D2/PDE4B2 selectivity entry on PDE4D2 was “B (2<B≤5)”. As to `[O-][S+]1CCc2nc(N3Cc4ccc(OC(F)F)cc4C3)nc(NC3(CO)CCC3)c21` (racemic) [Compound 87, (R/S)-2-(5-(difluoromethoxy)isoindolin-2-yl)-4-((1-(hydroxymethyl)cyclobutyl)amino)-6,7-dihydrothieno[3,2-d]pyrimidine 5-oxide], the PDE4D2/PDE4B2 selectivity result at PDE4D2 is “B (2<B≤5)”.

As to `COC1(c2ccc(Cl)cc2)CN(c2nc3c(c(NC4(CO)CCC4)n2)[S+]([O-])CC3)C1` (racemic) [Compound 83, (R/S)-2-(3-(4-chlorophenyl)-3-methoxyazetidin-1-yl)-4-((1-(hydroxymethyl)cyclobutyl)amino)-6,7-dihydrothieno[3,2-d]pyrimidine 5-oxide], the PDE4D2/PDE4B2 selectivity result at PDE4D2 is given as “A (5<A≤10)”. In addition, the IC50 in assay [1] amounted to 1.35 nM. For `[O-][S+]1CCc2nc(N3CCC(c4ncc(Cl)cn4)CC3)nc(NC3(CO)CCC3)c21` (stereo not shown) [Control 1, reference compound] the same measures were “C (C≤2)” and 146 nM. `COC1(c2ccc(Cl)c(F)c2)CN(c2nc3c(c(NC4CCOCC4)n2)[S+]([O-])CC3)C1` (racemic) [Compound 86, (R/S)-2-(3-(4-chloro-3-fluorophenyl)-3-methoxyazetidin-1-yl)-4-((tetrahydro-2H-pyran-4-yl)amino)-6,7-dihydrothieno[3,2-d]pyrimidine 5-oxide]: the PDE4D2/PDE4B2 selectivity result at PDE4D2 was “B (2<B≤5)”.

As to `COC1(c2ccc(N3CCCC3)cc2)CN(c2nc3c(c(NC4(CO)CCC4)n2)[S+]([O-])CC3)C1` (racemic) [Compound 107, (R/S)-4-((1-(hydroxymethyl)cyclobutyl)amino)-2-(3-methoxy-3-(4-(pyrrolidin-1-yl)phenyl)azetidin-1-yl)-6,7-dihydrothieno[3,2-d]pyrimidine 5-oxide], the PDE4D2/PDE4B2 selectivity entry at PDE4D2 is “B (2<B≤5)”. In the case of `COc1cc(C2(O)CN(c3nc4c(c(NC5(CO)CCC5)n3)[S+]([O-])CC4)C2)ccc1Cl` (racemic) [Compound 3, (R/S)-2-(3-(4-chloro-3-methoxyphenyl)-3-hydroxyazetidin-1-yl)-4-((1-(hydroxymethyl)cyclobutyl)amino)-6,7-dihydrothieno[3,2-d]pyrimidine 5-oxide], the PDE4D2/PDE4B2 selectivity result on PDE4D2 is “B (2<B≤5)”. Same read-out and setting: the result for `COC1(c2ccc(Cl)c(F)c2)CN(c2nc3c(c(NC4(CO)CCC4)n2)[S+]([O-])CC3)C1` (racemic) [Compound 82, (R/S)-2-(3-(4-chloro-3-fluorophenyl)-3-methoxyazetidin-1-yl)-4-((1-(hydroxymethyl)cyclobutyl)amino)-6,7-dihydrothieno[3,2-d]pyrimidine 5-oxide] reads “A (5<A≤10)”; that for `[2H]C([2H])([2H])OC1(c2ccc(Cl)cc2)CN(c2nc3c(c(NC4(CO)CCC4)n2)[S+]([O-])CC3)C1` (racemic) [Compound 92, (R/S)-2-(3-(4-chlorophenyl)-3-(methoxy-d3)azetidin-1-yl)-4-((1-(hydroxymethyl)cyclobutyl)amino)-6,7-dihydrothieno[3,2-d]pyrimidine 5-oxide], “A (5<A≤10)”; that for `[2H]C([2H])([2H])OC1(c2ccc(Cl)cc2)CN(c2nc3c(c(NC4CCOCC4)n2)[S+]([O-])CC3)C1` (racemic) [Compound 94, (R/S)-2-(3-(4-chlorophenyl)-3-(methoxy-d3)azetidin-1-yl)-4-((tetrahydro-2H-pyran-4-yl)amino)-6,7-dihydrothieno[3,2-d]pyrimidine 5-oxide], “B (2<B≤5)”. Turning to `COC1(c2ccc(Cl)cc2)CN(c2nc3c(c(NC4CCOCC4)n2)[S+]([O-])CC3)C1` (racemic) [Compound 88, (R/S)-2-(3-(4-chlorophenyl)-3-methoxyazetidin-1-yl)-4-((tetrahydro-2H-pyran-4-yl)amino)-6,7-dihydrothieno[3,2-d]pyrimidine 5-oxide], the PDE4D2/PDE4B2 selectivity entry at PDE4D2 is “B (2<B≤5)”.
